For one compound, IC50 results are on record in BindingDB's records for doi:10.1016/0960-894X(96)00063-7 (1996).

For this experiment, the target named is Squalene monooxygenase (Sus scrofa). Description: Compound was evaluated for the inhibition of pig liver microsomal squalene epoxidase. On the technique in general: Liver microsomes are vesicles of endoplasmic reticulum, rich in cytochrome P450 enzymes.

One may read the IC50 as the concentration that gives 50% inhibition. A lower IC50 goes with inhibition by little substance. With `CCN(C/C=C/C#CC(C)(C)C)Cc1cccc(NC[Si](C)(C)c2ccccc2C)c1` [(3-{[((E)-6,6-Dimethyl-hept-2-en-4-ynyl)-ethyl-amino]-methyl}-phenyl)-[(dimethyl-o-tolyl-silanyl)-methyl]-amine], half-maximal inhibition (IC50) was put at 0.1 µM.
